Source: patent publication US20100278907A1, “Immunogenic Compositions Containing Ceramide and Methods of Use Thereof” (Medical College of Georgia Research Institute, Inc, priority 2008, published 2010)
Read-outs that look alike come from different tables or passages of the source.

How the values were obtained:
Aβ biogenesis = settings: cited from earlier work
[1] = LPS model; cited from earlier work
[2] = repeated lung lavage; given together with surfactant; cited from earlier work
[3] = system: ceramide levels in F11 cells; assay: Immunocytochemistry for ceramide in treated F11 cells; format: cell-based
Method: (§1) For immunocytochemistry, F11 cells were grown on coverslips. Cells were incubated with myriocin for 3 days to inhibit de novo ceramide biosynthesis and reduce ceramide levels. To determine whether the antibody would cross-react with glycosphingolipids in the membrane, cells were incubated for 4 days with […] N-butyl-deoxynojirimycin (NB-dNJ), a glucosylceramide (GlcCer) synthase inhibitor known to inhibit glycosphingolipid biosynthesis. Control and myriocin- or NB-dNJ-treated cells were fixed with 4% p-formaldehyde in PBS for 20 min at room temperature. To release endogenous ceramide from sphingomyelin, fixed cells were incubated for 1 hour at 37° C. with 0.3 units (1 U/ml) of Staphylococcus aureus sphingomyelinase. Immunocytochemistry for ceramide was performed without the use of detergent for permeabilization. […] Confocal fluorescence microscopy was performed using a Zeiss LSM510 confocal laser scanning microscope equipped with a two photon argon laser at 488 nm (Cy2), 543 inn (Cy3), or 633 nm (Alexa Fluor: 647). […] Cells were washed with PBS, and stained cells were analyzed by flow cytometry, measuring the fluorescence emission at 530 nm. […]

[4] = system: ceramide levels in F11 cells; assay: Flow cytometry of F11 cells stained with anti-ceramide rabbit IgG; format: cell-based; settings: F11 cells incubated with myriocin, stained with rabbit IgG fraction; FIG. 2
Method: as §1

[5] = system: ceramide levels in F11 cells; assay: Ceramide levels by high-performance thin-layer chromatography; format: cell-based; settings: myriocin incubation of F11 cells for 3 days; HPTLC
[6] = cited from earlier work
[7] = system: TNF-α effect on endothelium-dependent vasorelaxation; settings: cited from earlier work
[8] = acid-induced acute lung injury; cited from earlier work

CCCCCCCCCCCCC/C=C/[C@@H](O)[C@H](CO)NC(=O)CCCCC [C6 ceramide, N-hexanoylsphingosine]
Aβ generation (Aβ biogenesis; FB1 treated cells): restored | biogenesis of Aβ (Aβ biogenesis; exogenous C6 ceramide): promoted

CN(C)CCCN1c2ccccc2CCc2ccccc21 [imipramine]
pulmonary inflammation [1]: attenuated | duration of the beneficial effect [2]: 24 h | edema formation [2]: ameliorates | oxygenation [2]: advances

CCCCCCC(=O)CCCCCC/C=C/C[C@@H](O)[C@H](O)[C@@](N)(CO)C(=O)O [myriocin]
intensity of the ceramide immunostaining signal ([3]; F11 cells incubated with myriocin for 3 days, rabbit IgG and polyclonal IgM): reduced | reduction of fluorescence intensity compared with control cells [4]: about 40% | reduction of ceramide levels [5]: about 50%

CCCCCCCCCCCCC/C=C/[C@@H](O)[C@H](CO)NC(C)=O [C2-ceramide, N-acetyl sphingosine]
ischaemic preconditioning-like protection ([6]; cell-permeable C2-ceramide compared with TNF-α preconditioning): TNF-a protection is reproduced

CCCCN1C[C@H](O)[C@@H](O)[C@H](O)[C@H]1CO [NB-dNJ, N-butyl-deoxynojirimycin]
intensity of the ceramide immunostaining signal ([3]; F11 cells incubated for 4 days with 250 mM NB-dNJ): not changed significantly

CNCCCN1c2ccccc2CCc2ccccc21 [desipramine]
effect on TNF-α inhibition of endothelium-dependent vasorelaxation [7]: neutralizes

CCCCCCCC/C=C\CCCCCCCC(=O)NCCO [N-oleoylethanolamine]
effect on preconditioning-like protection provided by TNF-a or C2-ceramide ([6]; ceramidase inhibitor): hinders | effect on protection induced by ischaemic preconditioning ([6]; ceramidase inhibitor): does not hinder

S=C(S)OC1CC2CC1C1CCCC21 (stereo not shown) [D609, tricyclodecan-9-yl-xanthate]
mortality [1]: attenuated | pulmonary edema formation [1]: attenuated | oxygenation [8]: improves | pulmonary edema [8]: attenuates | protection from ischaemia-induced cell death ([6]; administered before the ischaemic period): reproduces preconditioning protection
